Assay results reported in patent publication EP2905024A1 (Institut Quimic De Sarriá Cets, Fundació Privada, priority 2014, dated 2015).

Legend:
[1] = tested on: subgenomic HCV genotype 1b replicon, I389/NS3-3'/ LucUbiNeo-ET; experiment: in vitro antiviral activity: luciferase assay in LucUbiNeo-ET HCV replicon cells; format: cell-based; settings: Hepatitis C virus, 48 h, 2 days of incubation, luciferase readout, mean of duplicates
Excerpt: (§1) To analyze the antiviral activity of the compounds, we used a stable cell line, LucUbiNeo-ET, that contains a subgenomic HCV genotype 1b replicon, I389/NS3-3'/ LucUbiNeo-ET, that express luciferase constitutively (Krieger et al, JVI 2001; 75:4614; Frese et al., JGV 2003; 84: 1253-1259). To evaluate the cellular toxicity, we use other cell line, Huh-7/Lunet (Friebe et al., JVI 2005; 79: 380-392), that originally carried a selectable luciferase HCV 1b replicon and was cured by treatment with an HCV-specific inhibitor. These cells are characterized by high permissiveness for HCV RNA replication. LucUbiNeo-ET cell line was cultured at 37°C in a humidified atmosphere with 5% CO2 in Dulbecco's modified Eagle medium (D-MEM) supplemented with high glucose concentration (4.5g/l) (Invitrogen), 10% (vol/vol) heat-inactivated fetal bovine serum (Hyclone, Cultek), 2mM L-Glutamine (Sigma-aldrich), 1mM sodium pyruvate (Sigma-aldrich), 1% MEM NEEA (Sigma-aldrich), and 0.5 mg/ml of Geneticin (G418) (Gibco, Invitrogen). Cured or Huh-7/Lunet cell line was maintained at the same conditions as described above without the addition of Geneticin.
(§2) Antiviral activity was carried out in white-clear bottom 96-well plates, and cytotoxicity assays were performed in clear 96-well plates. Cells were seeded at a density of 10^4/well in 100ul D-MEM without selection of antibiotics. After 24h, nine fivefold serial dilution of compounds, with 3 replicates at each dilution, were prepared in D-MEM and added to the appropriate wells, yielding concentrations of 125 to 0,00032 ug/ml in a final volume of 100 ul of D-MEM. Following 2 days of incubation, we determined the antiviral activity (EC50) by quantifying the luciferase with the Luciferase Bright Glo assay (Promega). Briefly, LucUbiNeo-ET cells were harvested with the addition of 100 ul of luciferase per well, and after 2 minutes of shaking, the light was read in a Luminometer Fluoroskan Ascent FL. Toxicity (CC50) was analysed in the Lunet/HuH7 cells by the addition of 10 ul of MTT (3-(4,5-dimethylthiazol-2-yl)-2,5-diphenyltetrazolium bromide) per well. After 4h of incubation at 37°C in a humidified atmosphere with 5% CO2, the amount of formazan produced was quantified spectrophotometrically at 550/620 nm [C. Pannecouque et al, Nature protocol 2008; 3 (3): 427-434]. The EC50 and CC50 values were calculated for each compound. These assays were done in duplicate and the results shown in Table 1 represent the mean value of these duplicates.

[2] = cytotoxicity assay (MTT); format: cell-based; settings: human, Lunet/HuH7 cells, 2 days of incubation, mean of duplicates; for CC50 at 2 days: Huh-7/Lunet cells (cured HCV replicon cells); for CC50 at 48 h: huh-7/lunet cells
Excerpt: as §1, §2

CCCn1c(=O)c(-c2c(Cl)cccc2Cl)cc2c(N)nc(Nc3ccccc3)nc21 [Example 55, 4-amino-6-(2,6-dichlorophenyl)-2-(phenylamino)-8-propylpyrido[2,3-d] pyrimidine-7(8H)-one]
EC50 [1]: 1 to 5 µM
CC50 at 2 days [2]: ≥ 25 µM

Nc1nc(Nc2ccccc2)nc2c1cc(-c1c(Cl)cccc1Cl)c(=O)n2CCO [Example 59, 4-amino-6-(2,6-dichlorophenyl)-8-(2-hydroxyethyl)-2-(phenylamino) pyrido[2,3-d]pyrimidine-7(8H)-one]
EC50 [1]: 1 to 5 µM
CC50 at 2 days [2]: ≥ 25 µM

CC(C)Cn1c(=O)c(-c2c(Cl)cccc2Cl)cc2c(N)nc(Nc3ccccc3)nc21 [Example 57, 4-amino-6-(2,6-dichlorophenyl)-8-isobutyl-2-(phenylamino)pyrido[2,3-d] pyrimidine-7(8H)-one]
EC50 [1]: < 1 µM
CC50 at 2 days [2]: ≥ 25 µM

CCn1c(=O)c(-c2c(Cl)cccc2Cl)cc2c(N)nc(Nc3ccccc3)nc21 [Example 54, 4-amino-6-(2,6-dichlorophenyl)-8-ethyl-2-(phenylamino)pyrido[2,3-d] pyrimidine-7(8H)-one]
EC50 [1]: 1 to 5 µM
CC50 at 2 days [2]: ≥ 25 µM

O=C1Nc2nc(Nc3ccccc3)nc(On3nnc4ccccc43)c2CC1c1ccc(Cl)cc1Cl (stereo not shown) [Example 6, 4-((1H-benzo[d][1,2,3]triazol-1-yl)oxy)-6-(2,4-dichlorophenyl)-2-(phenylamino)-5,6-dihydropyrido[2,3-d]pyrimidine-7(8H)-one]
EC50 [1]: 1 to 5 µM
CC50 at 2 days [2]: < 10 µM

Cn1c(=O)c(-c2c(Br)cccc2Br)cc2c(N)nc(Nc3ccccc3)nc21 [Example 49, 4-amino-6-(2,6-bromophenyl)-8-methyl-2-(phenylamino)pyrido[2,3-d]pyrimidine-7(8H)-one]
EC50 [1]: < 1 µM
CC50 at 2 days [2]: < 10 µM

COc1nc(N)nc2c1CC(c1c(Cl)cccc1Cl)C(=O)N2C (stereo not shown) [Example 45, 2-amino-6-(2,6-dichlorophenyl)-4-methoxy-8-methyl-5,6-dihydropyrido[2,3-d]pyrimidine-7(8H)-one]
EC50 [1]: 5 to 22 µM
CC50 at 2 days [2]: ≥ 25 µM

O=C1Nc2nc(Oc3ccccc3)nc(On3nnc4ccccc43)c2CC1c1ccc(F)cc1 (stereo not shown) [Example 3, 4-((1H-benzo[d][1,2,3]triazol-1-yl)oxy)-6-(4-fluorophenyl)-2-phenoxy-3,4,5,6-tetrahydropyrido[2,3-d]pyrimidine-7(8H)-one]
EC50 [1]: 5 to 22 µM
CC50 at 48 h [2]: ≥ 25 µM

CCCCCNc1nc(N)nc2[nH]c(=O)c(-c3c(Cl)cccc3Cl)cc12 [Example 28, 2-amino-6-(2,6-dichlorophenyl)-4-(pentylamino)pyrido[2,3-d]pyrimidine-7(8H)-one]
EC50 [1]: 1 to 5 µM
CC50 at 2 days [2]: 10 to 25 µM

CCCOCCNc1nc(Nc2ccccc2)nc2c1cc(-c1c(Cl)cccc1Cl)c(=O)n2C [Example 46, 6-(2,6-dichlorophenyl)-8-methyl-2-(phenylamino)-4-((2-propoxyethyl)amino)pyrido[2,3-d]pyrimidine-7(8H)-one]
EC50 [1]: 5 to 22 µM
CC50 at 2 days [2]: ≥ 25 µM

COc1ccc(Nc2nc3[nH]c(=O)c(-c4ccc(F)cc4)cc3c(=O)[nH]2)cc1 [Example 31, 6-(4-fluorophenyl)-2-((4-methoxyphenyl)amino)pyrido[2,3-d]pyrimidine-4,7(3H,8H)-dione]
EC50 [1]: 5 to 22 µM
CC50 at 2 days [2]: ≥ 25 µM

CCCOCCOc1nc(N)nc2c1cc(-c1c(Cl)cccc1Cl)c(=O)n2C [Example 44, 2-amino-6-(2,6-dichlorophenyl)-8-methyl-4-(2-propoxyethoxy)pyrido[2,3-d]pyrimidine-7(8H)-one]
EC50 [1]: 5 to 22 µM
CC50 at 2 days [2]: ≥ 25 µM

Cn1c(=O)c(-c2c(Cl)cccc2Cl)cc2c(N)nc(N)nc21 [Example 52]
EC50 [1]: 5 to 22 µM
CC50 at 48 h [2]: ≥ 25 µM

O=C1Nc2nc(Nc3ccccc3)[nH]c(=O)c2CC1c1cccc2ccccc12 (stereo not shown) [Example 20, 6-(naphthalen-1-yl)-2-(phenylamino)-5,6-dihydropyrido[2,3-d]pyrimidine-4,7(3H,8H)-dione]
EC50 [1]: 5 to 22 µM
CC50 at 2 days [2]: 10 to 25 µM

CN1CCN(c2ccc(Nc3nc(N)c4cc(-c5c(Cl)cccc5Cl)c(=O)n(C)c4n3)cc2)CC1 [Example 61]
EC50 [1]: < 1 µM
CC50 at 2 days [2]: < 10 µM

Nc1nc(Nc2ccccc2)nc2[nH]c(=O)c(-c3c(F)cccc3F)cc12 [Example 34, 4-amino-6-(2,6-difluorophenyl)-2-(phenylamino)pyrido[2,3-d]pyrimidine-7(8H)-one]
EC50 [1]: 5 to 22 µM
CC50 at 2 days [2]: < 10 µM

CCCOCCNc1nc(N)nc2c1cc(-c1ccc(F)cc1)c(=O)n2C [Example 41, 2-amino-6-(4-fluorophenyl)-8-methyl-4-((2-propoxyethyl)amino)pyrido[2,3-d]pyrimidine-7(8H)-one]
EC50 [1]: 1 to 5 µM
CC50 at 2 days [2]: ≥ 25 µM

COCCOc1nc(N)nc2c1CC(c1c(Cl)cccc1Cl)C(=O)N2 (stereo not shown) [Example 13, 2-amino-6-(2,6-dichlorophenyl)-4-(2-methoxyethoxy)-5,6-dihydropyrido[2,3-d]pyrimidine-7(8H)-one]
EC50 [1]: 5 to 22 µM
CC50 at 2 days [2]: ≥ 25 µM

O=C1Nc2nc(Nc3ccccc3)nc(On3nnc4ccccc43)c2CC1c1ccc(F)cc1 (stereo not shown) [Example 4]
EC50 [1]: 1 to 5 µM
CC50 at 48 h [2]: 10 to 25 µM

O=c1[nH]c2nc(Nc3ccccc3)[nH]c(=O)c2cc1-c1ccc(F)cc1 [Example 29, 6-(4-fluorophenyl)-2-(phenylamino)pyrido[2,3-d]pyrimidine-4,7(3H,8H)-dione]
EC50 [1]: < 1 µM
CC50 at 2 days [2]: 10 to 25 µM

CCCCCNc1nc(N)nc2c1cc(-c1ccc(F)cc1)c(=O)n2C [Example 42, 2-amino-6-(4-fluorophenyl)-8-methyl-4-(pentylamino) pyrido[2,3-d]pyrimidine-7(8H)-one]
EC50 [1]: 5 to 22 µM
CC50 at 2 days [2]: 10 to 25 µM

COCCn1c(=O)c(-c2c(Cl)cccc2Cl)cc2c(N)nc(Nc3ccccc3)nc21 [Example 58, 4-amino-6-(2,6-dichlorophenyl)-8-(2-methoxyethyl)-2-(phenylamino) pyrido[2,3-d]pyrimidine-7(8H)-one]
EC50 [1]: < 1 µM
CC50 at 2 days [2]: ≥ 25 µM

O=C1Nc2nc(NCc3ccccc3)[nH]c(=O)c2CC1c1c(Cl)cccc1Cl (stereo not shown) [Example 22, 2-(benzylamino)-6-(2,6-dichlorophenyl)-5,6-dihydropyrido [2,3-d]pyrimidine-4,7(3H,8H)-dione]
EC50 [1]: 5 to 22 µM
CC50 at 2 days [2]: ≥ 25 µM
